From ChEMBL document CHEMBL6178019, “Discovery of CYP1A1 Inhibitors for Host-Directed Therapy against Sepsis” (J Med Chem, 2025)

Columns and labels:
Assay type in all cases: cell-based
Cytochrome P450 1A1 [1] = target: T1, Cytochrome P450 1A1 (Homo sapiens, UniProt P04798); experiment: Inhibition of CYP1A1 in human Caco-2 cells assessed as relative activity by measuring fold change at 5.0 uM incubated for 12 hrs by EROD assay relative to control; conditions: caco-2, 12 h
T1 sequence (P04798 whole entry): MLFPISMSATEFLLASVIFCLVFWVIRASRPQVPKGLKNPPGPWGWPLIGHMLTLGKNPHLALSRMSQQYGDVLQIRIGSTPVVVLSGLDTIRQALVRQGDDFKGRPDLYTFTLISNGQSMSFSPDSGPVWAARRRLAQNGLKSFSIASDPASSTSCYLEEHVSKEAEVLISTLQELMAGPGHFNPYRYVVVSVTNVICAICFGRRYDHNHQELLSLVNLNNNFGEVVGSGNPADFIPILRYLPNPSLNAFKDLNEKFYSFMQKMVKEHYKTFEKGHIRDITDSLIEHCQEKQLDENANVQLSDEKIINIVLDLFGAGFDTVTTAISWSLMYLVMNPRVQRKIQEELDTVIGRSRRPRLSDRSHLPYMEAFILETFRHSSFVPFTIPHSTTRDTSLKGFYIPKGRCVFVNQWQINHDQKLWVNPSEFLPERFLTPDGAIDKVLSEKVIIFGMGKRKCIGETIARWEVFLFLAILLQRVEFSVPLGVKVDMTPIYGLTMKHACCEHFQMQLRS

CYP1A1 [2] = target: T2, CYP1A1 (Mus musculus, UniProt P00184); experiment: Inhibition of CYP1A1 in mouse RAW264.7 cells assessed as relative activity by measuring fold change at 5 uM incubated for 12 hrs by EROD assay relative to control; conditions: read-out: FC
T2 sequence (P00184 whole entry): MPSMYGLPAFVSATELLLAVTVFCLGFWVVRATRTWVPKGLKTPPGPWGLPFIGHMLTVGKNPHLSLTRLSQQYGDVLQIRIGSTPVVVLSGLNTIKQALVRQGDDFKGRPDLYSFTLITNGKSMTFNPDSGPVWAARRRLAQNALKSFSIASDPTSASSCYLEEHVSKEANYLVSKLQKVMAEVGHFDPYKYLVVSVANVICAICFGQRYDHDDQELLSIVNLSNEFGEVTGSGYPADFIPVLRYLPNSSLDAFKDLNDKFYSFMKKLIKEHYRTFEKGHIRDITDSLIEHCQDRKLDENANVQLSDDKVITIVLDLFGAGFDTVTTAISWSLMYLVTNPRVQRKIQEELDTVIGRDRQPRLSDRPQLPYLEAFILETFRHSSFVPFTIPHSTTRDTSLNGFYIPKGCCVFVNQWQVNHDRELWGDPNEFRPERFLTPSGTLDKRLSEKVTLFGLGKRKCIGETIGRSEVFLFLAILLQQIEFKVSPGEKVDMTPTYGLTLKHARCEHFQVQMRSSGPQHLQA

CYP1A1 [3] = target: T3, CYP1A1 (Homo sapiens, UniProt P04798); experiment: Inhibition of CYP1A1 in human Caco-2 cells assessed as relative activity by measuring fold change at 500 nM incubated for 12 hrs by EROD assay relative to control; conditions: read-out: FC
T3 sequence (P04798 whole entry): T1 sequence (P04798 whole entry)

CYP1A1 [4] = target: T3, CYP1A1; experiment: Inhibition of CYP1A1 in human Caco-2 cells at 5 uM incubated for 12 hrs by EROD assay relative to control
Cytochrome P450 1A1 [5] = target: T1, Cytochrome P450 1A1; experiment: Inhibition of CYP1A1 in human Caco-2 cells incubated for 12 hrs by EROD assay; conditions: caco-2, 12 h, at 50 to 5000 nM, dose 50-5000 nM
CYP1A1 [6] = target: T2, CYP1A1; experiment: Inhibition of CYP1A1 in mouse RAW264.7 cells assessed as relative activity by measuring fold change at 500 nM incubated for 12 hrs by EROD assay relative to control; conditions: read-out: FC
CYP1A1 [7] = target: T2, CYP1A1; experiment: Inhibition of CYP1A1 in mouse RAW264.7 cells at 5 uM incubated for 12 hrs by EROD assay relative to control

fold change (FC) (Cytochrome P450 1A1 [1])	fold induction at 12 h, 5 µM (CYP1A1 [2])	fold induction at 12 h, 0.5 µM (CYP1A1 [3])	inhibition at 12 h, 5 µM (CYP1A1 [4]) [%]	inhibition (INH) (Cytochrome P450 1A1 [5])	fold induction at 12 h, 0.5 µM (CYP1A1 [6])	inhibition at 12 h, 5 µM (CYP1A1 [7]) [%]	Compound
0.04	1.02	0.32	100	Dose-dependent-effect	1.17		Cn1c(=O)n(C)c2cc(C(=O)/C=C/c3ccccc3F)ccc21
0.18	0.23	0.45	~80		0.38	~80	Cn1c(=O)n(C)c2cc(C(=O)/C=C/c3cccs3)ccc21
0.37	0.64	0.97			0.79		Cn1c(=O)n(C)c2cc(C(=O)/C=C/c3ccc([N+](=O)[O-])cc3)ccc21
0.19	0.32	0.43	~80		0.58	~80	Cn1c(=O)n(C)c2cc(C(=O)/C=C/c3ccsc3)ccc21
0.67	0.55	0.9			0.69		Cn1c(=O)n(C)c2cc(C(=O)/C=C/c3cccn3C(=O)OC(C)(C)C)ccc21
0.43	0.89	0.69			1.11		Cn1c(=O)n(C)c2cc(C(=O)/C=C/c3ccc(O[Si](C)(C)C(C)(C)C)cc3)ccc21
0.28	0.24	0.71			0.95		Cn1c(=O)n(C)c2cc(C(=O)/C=C/c3ccc([N+](=O)[O-])o3)ccc21
0.01	0.14	0.18			1.07		C#Cc1cccc(/C=C/C(=O)c2ccc3c(c2)n(C)c(=O)n3C)c1
0.42	0.56	0.68			0.74		Cn1c(=O)n(C)c2cc(C(=O)/C=C/c3ccc(F)cc3F)ccc21
0.17	0.57	0.62			0.82		Cn1c(=O)n(C)c2cc(C(=O)/C=C/C=C/c3ccc(F)cc3)ccc21
0.71	1.06	0.8			1.15		Cn1c(=O)n(C)c2cc(C(=O)/C=C/c3c4ccccc4cc4ccccc34)ccc21
0.74	0.89	0.89			0.76		Cn1c(=O)n(C)c2cc(C(=O)/C=C/c3cc(F)cc(F)c3)ccc21
0.23	0.77	0.91			0.95		CCCCOc1ccc(/C=C/C(=O)c2ccc3c(c2)n(C)c(=O)n3C)cc1
0.77	0.17	0.93			0.92		CC(=O)n1cc(/C=C/C(=O)c2ccc3c(c2)n(C)c(=O)n3C)c2ccccc21
0.15	0.29	0.62			1.03		Cn1c(=O)n(C)c2cc(C(=O)/C=C/c3cnc4ccccc4c3)ccc21
0.28	0.22	0.71			0.95		Cn1c(=O)n(C)c2cc(C(=O)/C=C/c3ccccc3)ccc21
0.24	0.54	0.52			1.05		CN(C)c1ccc(/C=C/C(=O)c2ccc3c(c2)n(C)c(=O)n3C)cc1
0.81	0.81	1.14			1.15		COc1ccc2c(c1)c(/C=C/C(=O)c1ccc3c(c1)n(C)c(=O)n3C)cn2Cc1ccccc1
